Measured values as given in patent US8153784B2, “Imaging of enzyme activity” (The General Hospital Corporation, priority 2004, dated 2012).

Assays:
endogenous mouse MPO = target: T1, endogenous mouse MPO (Mus musculus, UniProt P11247); test: LPS/Matrigel experiments, MR imaging; type: in vivo; details: mice; LPS/Matrigel right vs Matrigel left
T1 construct: endogenous in cells; host or cells: inflammatory cells recruited by LPS in C57BL6 male mice (Matrigel site in the thigh, or flank muscle myositis)
T1 sequence (P11247 139-718): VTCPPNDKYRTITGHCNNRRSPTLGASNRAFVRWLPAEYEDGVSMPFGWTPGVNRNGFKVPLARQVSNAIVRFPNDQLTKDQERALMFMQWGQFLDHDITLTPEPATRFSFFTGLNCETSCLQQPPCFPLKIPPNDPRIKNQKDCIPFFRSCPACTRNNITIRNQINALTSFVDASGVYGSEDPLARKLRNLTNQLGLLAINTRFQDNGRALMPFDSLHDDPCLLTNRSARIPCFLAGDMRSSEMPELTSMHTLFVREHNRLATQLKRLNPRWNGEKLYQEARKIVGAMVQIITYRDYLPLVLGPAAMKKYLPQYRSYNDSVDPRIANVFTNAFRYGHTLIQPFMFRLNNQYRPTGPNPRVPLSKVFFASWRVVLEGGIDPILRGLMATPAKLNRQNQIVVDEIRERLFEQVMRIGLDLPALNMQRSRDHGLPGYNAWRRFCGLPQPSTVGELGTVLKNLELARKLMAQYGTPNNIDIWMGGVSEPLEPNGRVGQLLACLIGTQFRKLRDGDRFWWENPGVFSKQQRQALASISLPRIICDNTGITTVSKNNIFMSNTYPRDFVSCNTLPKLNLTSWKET
Method: The MR imaging experiments were performed on a 1.5 T GE Excite scanner and a 4.7 T Bruker Pharmascan scanner. For all MR imaging experiments, precontrast T2-(TR=2000, TE=100, ETL=8, NEX=4, fast spin echo sequence) and T1-weighted images (TR=500, TE=11, NEX=4, spin echo sequence) with fat saturation were initially performed to locate the gels or area of inflammation. The substrates (0.3 mmol/kg) were subsequently injected via the tail vein of the mouse. The mouse was immediately imaged after the injection of the contrast agent using multiple T1-weighted sequences with fat saturation for at least 3 hours.
Ten-week old C57BL6 male mice were obtained from Jackson Laboratories. A total of 22 mice were used for the study. • 1. MPO/Matrigel imaging experiments: Matrigel™ (Beckton-Dickinson), a […] basement membrane matrix gel was used to immobilize human MPO and glucose oxidase (to supply H2O2 required for detecting MPO oxidative activity, Calbiochem). This was chosen to reflect deposits of human MPO in inflamed tissue in a mouse model. 400 μL of a mixture of Matrigel™ and MEM (Cambrex) was injected slowly into the thighs of each mouse one hour prior to imaging. The right thigh mixture also contained 15 U of MPO and 4 U of glucose oxidase (Calbiochem), while the left thigh mixture contained no enzyme and thus serves as an internal control. […]

human neutrophil MPO = target: T2, human neutrophil MPO (Homo sapiens, UniProt P05164); test: MPO-mediated polymerization of DOTA(Gd) substrates: T1/T2 relaxivity change; type: biochemical; details: for maximum ratio of relaxivity increase between MPO-converted product and substrate: longitudinal and transverse, 1300-1400 U of enzyme activity
T2 construct: purchased BioDesign Inc
Method: Reactions with HRP and MPO were carried out at room temperature in the presence of 0.5-1 mM substrate dissolved in 0.5 ml PBS containing H2O2 (2 mM). Reaction was initiated by adding an aliquot containing the enzyme (either HRP or MPO) and vortexing. After at least a 30 min incubation period T1 was measured using inversion-recovery pulse sequence Bruker Minispec (Buker Analytics, North Bellirica Mass.) at 0.47 T (20 MHz). Size-exclusion HPLC of reaction products was performed on TSK G3000SWXL macroporous column (Supelco) eluted with 0.1 M triethylammonium acetate, pH 7.0 at 1 ml/min.
Standard 96-well plates were prepared and imaged on a 1.5 T whole body clinical General Electric Signa MRI scanner utilizing a standard 3 inch surface coil. Inversion recovery sequences were used to measure T1 relaxation and spin echo sequences were utilized to measure T2 relaxation. T2 weighted images were obtained with TR=5000 ms and TE=100 ms with a fast spin echo sequence. T1 weighted images were obtained with spin echo sequences with the following parameters: TR=100, 200, 350, or 500, TE=11. For the Matrigel™ experiments, a relatively T2 weighted image was obtained at TR=300 ms and TE=200 ms. Single-exponential models were used to obtain T1 and T2. The relaxivities were computed by normalizing relaxation rates to the concentration of gadolinium in each sample, obtained by inductive coupled plasma (ICP) analysis performed by Galbraith Laboratories.
To determine the effect of myeloperoxidase on the substrates, we performed T1 and T2 relaxivity measurements in aqueous solutions, with and without MPO and hydrogen peroxide, at 0.47 T and 1.5 T (the results are summarized in FIGS. 3A and 3B for tyramide-DOTA(Gd) and FIGS. 4A and 4B for 5-HT-DOTA(Gd)). For reference, the two substrates were also reacted with HRP (solid symbols in FIGS. 3A and 3B and FIGS. 4A and 4B).

T2 sequence (P05164 279-745 limits assumed): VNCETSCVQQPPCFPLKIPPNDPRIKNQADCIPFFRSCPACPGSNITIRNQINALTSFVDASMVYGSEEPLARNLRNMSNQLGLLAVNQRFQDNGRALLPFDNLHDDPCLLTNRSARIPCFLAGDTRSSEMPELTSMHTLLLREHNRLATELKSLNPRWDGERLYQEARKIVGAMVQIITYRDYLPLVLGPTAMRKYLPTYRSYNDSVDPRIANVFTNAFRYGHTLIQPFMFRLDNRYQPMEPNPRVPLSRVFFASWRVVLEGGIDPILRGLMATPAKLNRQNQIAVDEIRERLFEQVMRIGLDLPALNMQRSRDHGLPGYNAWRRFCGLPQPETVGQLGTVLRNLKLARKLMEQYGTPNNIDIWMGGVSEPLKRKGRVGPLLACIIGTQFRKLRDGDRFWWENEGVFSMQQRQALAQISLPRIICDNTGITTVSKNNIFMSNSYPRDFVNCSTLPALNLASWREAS
T2 sequence (P05164 165-273 limits assumed): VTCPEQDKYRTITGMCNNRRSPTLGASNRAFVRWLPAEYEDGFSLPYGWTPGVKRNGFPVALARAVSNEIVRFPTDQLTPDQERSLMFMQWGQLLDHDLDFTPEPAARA

O=C([O-])CN(CCN(CC(=O)[O-])CC(=O)NCCc1c[nH]c2ccc(O)cc12)CCN(CC(=O)[O-])CC(=O)NCCc1c[nH]c2ccc(O)cc12.[Gd+3] [2Gd^3+]
increased enhancement on the MPO side (endogenous mouse MPO): 1.3 fold

CC(C(=O)NCC(=O)NCCc1c[nH]c2ccc(O)cc12)N1CCN(CC(=O)[O-])CCN(CC(=O)[O-])CCN(CC(=O)[O-])CC1.[Gd+3] (stereo not shown) [5-HT-DOTA(Gd), Glycylmethyl DOTA(Gd) 5-Hydroxytryptamide]
maximum ratio of relaxivity increase between MPO-converted product and substrate (human neutrophil MPO; 0.47 T): 1.9-2 times
maximum ratio of relaxivity increase between MPO-converted product and substrate (human neutrophil MPO; 1.5 T): 1.6-1.7 times
T1 shortening relative to that by HRP (human neutrophil MPO; 10 μL of MPO (1.6 mg/ml) vs 1 μL HRP (4 mg/ml)): 100%
T1 shortening relative to HRP-mediated T1 shortening (human neutrophil MPO; 250-650 U MPO): Approximately 70%
relaxivity shortening found in the relaxation experiments (human neutrophil MPO; 1300-2000 U): ~70%
increase in relaxivity of polymer product (human neutrophil MPO; equivalent amount of MPO, clinical imaging strength): 1.7 times
